From patent publication EP4371976B1, “IONIZABLE LIPIDS AND LIPID NANOPARTICLES CONTAINING THEREOF” (Certest Biotec, S.L., priority 2022, dated 2024)

What was measured:
Female BALB/c mice = test: Firefly luciferase expression (total flux, IVIS imaging) in mice after injection of mRNA-loaded LNPs; format: in vivo; conditions: for protein expression in mice (transfection results): Figure 1 legend, LNPs containing RNA
Experimental: For in vivo administration, mRNA comprising in the 5' to 3' direction a sequence encoding for luciferase of SEQ ID NO:1, was encapsulated into LNPs following the procedure described in Hassett, K. J. et al., "Optimization of Lipid Nanoparticles for Intramuscular Administration of mRNA Vaccines", 2019, Mol. Ther. Nucleic Acid, vol. 15, pp. 1-11. Briefly, the purified mRNAs were first diluted in sodium citrate buffer at pH=4 at a final concentration of 266 µg/ml. Separately, a mixture of the ionizable lipid of the invention:DSPC (Merk 850365P):cholesterol (Sigma C3045):DMG-PEG2000 (Cayman 33945-1) were dissolved into ethanol at the respective molar percentages of 50:10:38.5:1.5, and with a lipid-nitrogen-to-phosphate ratio (N:P) ratio of 5,5:1.
The mRNA aqueous solution was then carefully added to the ethanol solution, and the resulted solution was homogenized by pipetting up and down for 4-5 times. The resulting LNPs were immediately diluted 1:1 with Tris buffer and dialyzed overnight against Tris buffer containing 15% sucrose. The resulting LNP solution was then collected, and the encapsulated mRNA was assessed by Quant-IT® Ribogreen (Invitrogen R11490) following the manufacturer's instructions.
Female BALB/c mice (Charles River Laboratories), 8-10-week-old, weighting 18-23 g, were acclimatized to new conditions upon arrival to experimental facilities for 3-7 days. Housing conditions were room temperature 20-24 °C, humidity 50-70 %, and light intensity 60 lux with a light-dark cycle of 12 hours.
For Firefly Luciferase activity measurement in mice, LNPs produced as indicated above (ionizable lipid:helper lipid: sterol:PEG-modified lipid → 50:10:38.5:1.5) and containing 5 µg of the indicated mRNA in 50 µl final volume, were injected intramuscularly.
From 4 to 72 hours after RNA-LPN inoculation mice were anaesthetized by inhalation with 4% of isoflurane using a vaporizer. The maintenance of the anaesthesia was performed at 1.5% of isoflurane. Then, D-luciferin (Quimigen, 12507) was injected intraperitoneally at 150 mg/kg, normally ~200 µL of the stock at 15 mg/mL in PBS for a 20 g mouse. Luciferase images were acquired 10 minutes after luciferin inoculation using the IVIS Lumina XRMS Imaging System following manufacturer's instructions.

[1] = RNA encapsulation efficiency of LNPs by Quant-IT Ribogreen; format: physicochemical; conditions: for Encaps. efficiency (%): LNPs with luciferase mRNA, ionizable lipid:non-cationic lipid:sterol:PEG-modified lipid 50:10:38.5:1.5, percentage of RNA entrapped in the LNP; for Encaps. efficiency: Table 8, LNP 50:10:38.5:1.5, luciferase mRNA
Procedure, shortened: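 Ribogreen dye assay per manufacturer quantified encapsulated mRNA. Particles were made by adding mRNA in water to the ethanol phase, then 1:1 Tris dilution and overnight dialysis into Tris/15% sucrose; final mRNA set to 100 µg/ml.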

[2] = Size distribution, polydispersity and Z-potential of LNPs by dynamic light scattering (Malvern Zetasizer); format: physicochemical; conditions: LNPs, standard formulation 50:10:38.5:1.5; DLS
Experimental: The LNP solution was then adjusted to a final concentration of mRNA of 100 µg/ml. Size distribution, polydispersity and Z-potential were measured by dynamic light scattering (DLS) using Malvern Zetasizer Advance Lab Blue Label. RNA encapsulation was assessed by Quant-IT® Ribogreen following the manufacturer's instructions.

[3] = Apparent pKa of LNPs comprising the ionizable lipid (Table 6); conditions: standard formulation 50:10:38.5:1.5
[4] = Table 8, mice, intramuscular, 5 µg luciferase mRNA in 50 µl, LNP 50:10:38.5:1.5
[5] = Table 9, comparative disulfide compounds, tested in vivo

Row | Compound | Total Flux (Female BALB/c mice; Table 7A-C, mice, intramuscular, 5 µg luciferase mRNA in 50 µl, LNP ionizable lipid:helper lipid:sterol:PEG-modified lipid 50:10:38.5:1.5) | Total Flux (Female BALB/c mice; [4]) | Encaps. efficiency (%) [1] | Encaps. efficiency [1] | Z Potential (± D.E.) [mV] [2] | Particle size/ Ø (nm) [2] | Total Flux (Female BALB/c mice; [5]) | transfection (luminescence) in vivo (Female BALB/c mice; Figure 2, intramuscular injection, LNP 50:10:38.5:1.5 encapsulating luciferase mRNA) | P.D.I. [2] | protein expression in mice (transfection results) (Female BALB/c mice) | Apparent pKa [3]
1 | CCCCCCC#CCCOC(=O)CCSCC(CC(=O)NCCCN1CCOCC1)C(=O)OC(CCCCCCCC)CCCCCCCC (centres unmarked) | Total flux: 1,4E+08 p·s^-1 | – | – | – | – | – | – | – | – | – | –
2 | CCCCCCCCC(CCCCCC)C(=O)NC(CCSCCC(=O)OCCCCCCCC(C)C)C(=O)NCCCN(C)C (centres unmarked) [VC-LC-0101] | – | 1.05E+07 p·s^-1 | 96.01% | 96.0% | 0.00 mV | – | – | – | – | – | –
3 | CCCCCCCCCCCCCCCCCCOC(=O)CCSCCC(NC(=O)C(CCCCCC)CCCCCCCC)C(=O)NC1CCN(C)CC1 (centres unmarked) [VC-LC-0215] | – | 4.23E+07 p·s^-1 | 58.34% | 58.3% | -13.70 mV | 143.5 nm | – | – | – | – | –
4 | CCCCCCCCC(CCCCCC)C(=O)NC(CCSSCCC(NC(=O)C(CCCCCC)CCCCCCCC)C(=O)NCCCN(C)C)C(=O)NCCCN(C)C (centres unmarked) [VC-LC-0230] | – | – | – | – | – | – | 4.47E+05 p·s^-1 | – | – | – | –
5 | CCCCCCCCC(CCCCCC)C(=O)NC(CCSSCCC(NC(=O)C(CCCCCC)CCCCCCCC)C(=O)NCCN1CCN(C)CC1)C(=O)NCCN1CCN(C)CC1 (centres unmarked) [VC-LC-0236] | – | – | – | – | – | – | 5.20E+05 p·s^-1 | no transfection | – | – | –
6 | CCCCCCCCC(CCCCCC)C(=O)NC(CCSSCCC(NC(=O)C(CCCCCC)CCCCCCCC)C(=O)NCCCN(CCO)CCO)C(=O)NCCCN(CCO)CCO (centres unmarked) [VC-LC-0237] | – | – | – | – | – | – | 3.16E+05 p·s^-1 | – | – | – | –
7 | CCCCCCCCCCCCCCCCCCOC(=O)CCSCCC(NC(=O)C(CCCCCC)CCCCCCCC)C(=O)NCCCn1ccnc1 (centres unmarked) [VC-LC-0262] | – | 7.5E+07 p·s^-1 | 33.79% | 33.79% | -10.53 mV | 143.8 nm | – | – | 0.11 | – | –
8 | CCCCCCCC/C=C\CCCCCCCC(=O)NC(CCSCCC(=O)OCCCCCCCCCCCCC)C(=O)NCCCN(CCO)CCO (centres unmarked) [VC-LC-0289] | – | 2.329E+07 p·s^-1 | 89.26% | 89.3% | -0.34 mV | 207.1 nm | – | – | 0.2 | good transfection results | –
9 | CCCCCCCCC(CCCCCCCC)OC(=O)C(CSCCC(=O)OCCCCCC(C)C)CC(=O)NCCCn1ccnc1 (centres unmarked) [VC-LC-0302] | – | 7.9E+07 p·s^-1 | 40.58% | 40.6% | -9.30 mV | 112.3 nm | – | – | 0.13 | – | –
10 | CCCCCCCC/C=C\CCCCCCCC(=O)NC(CCSCCC(=O)OCC(CCCCCCCCCC)CCCCCCCCCCCC)C(=O)NCCCN1CCOCC1 (centres unmarked) [VC-LC-0353] | – | 5.2E+07 p·s^-1 | 57.26% | 57.26% | -8.97 mV | 175.8 nm | – | – | 0.1 | good transfection results | –
11 | CCCCCCCC/C=C\CCCCCCCCOC(=O)CCSCCC(NC(=O)CCCCCCC/C=C\CCCCCCCC)C(=O)NCCCN1CCOCC1 (centres unmarked) [VC-LC-0355] | – | 2.39E+07 p·s^-1 | 81.58% | 81.6% | -4.71 mV | 242.2 nm | – | – | 0.3 | good transfection results | –
12 | CCCCCCCC/C=C\CCCCCCCC(=O)NC(CCSCCC(=O)OCC(CCCCCCCCCC)CCCCCCCCCCCC)C(=O)NC1CCN(C)CC1 (centres unmarked) [VC-LC-0356] | – | 3.83E+07 p·s^-1 | 68.27% | 68.3% | -10.96 mV | 218.9 nm | – | – | 0.09 | – | –
13 | CCCCCCCCCCCCCOC(=O)CCSCCC(C(=O)NCCCn1ccnc1)C(=O)OC(CCCCCCCC)CCCCCCCC (centres unmarked) [VC-LC-0362] | – | 3.31E+07 p·s^-1 | 73.55% | 73.5% | -13.94 mV | 121.1 nm | – | – | 0.14 | – | –
14 | CCCCCCCCCCCCCCOC(=O)CCSCCC(C(=O)NCCCn1ccnc1)C(=O)OC(CCCCCCCC)CCCCCCCC (centres unmarked) [VC-LC-0367] | – | 3.16E+07 p·s^-1 | 47.47% | 47.5% | -15.48 mV | 134.6 nm | – | – | 0.19 | – | –
15 | CCCCCCCCCCCCCCCCCC(=O)NC(CCSCCC(=O)OCCCCCCCCCCCCC)C(=O)NCCCN1CCOCC1 (centres unmarked) [VC-LC-0374] | – | – | 70.37% | – | -9.62 mV | 174.7 nm | – | – | 0.16 | good transfection results | –
16 | CCCCCCCCCCCCCCCCCC(=O)NC(CCSCCC(=O)OCC(CCCCCCCCCC)CCCCCCCCCCCC)C(=O)NCCCN1CCOCC1 (centres unmarked) [VC-LC-0389] | – | – | 76.40% | – | -9.68 mV | 218 nm | – | – | 0.26 | good transfection results | –
17 | CCCCCCCCC(CCCCCC)COC(=O)CCSCCC(C(=O)NC1CCN(C)CC1)C(=O)OC(CCCCCCCC)CCCCCCCC (centres unmarked) [VC-LC-0439] | – | 2.39E+07 p·s^-1 | 91.14% | 91.1% | -6.48 mV | 144.8 nm | – | – | 0.1 | – | –
18 | CCCCCCCCCCCCCCOC(=O)CCSCCC(NC(=O)C(CCCCCCCC)CCCCCCCCCC)C(=O)NCCCN1CCOCC1 (centres unmarked) [VC-LC-0577] | – | – | 55.61% | – | -15.06 mV | 182.2 nm | – | – | 0.13 | – | 5.69
19 | CCCCCCCC/C=C\CCCCCCCCOC(=O)CCSCCC(NC(=O)C(CCCCCCCC)CCCCCCCCCC)C(=O)NCCCN1CCOCC1 (centres unmarked) [VC-LC-0587] | – | – | 38.50% | – | -6.62 mV | 150.3 nm | – | – | 0.12 | – | 5.54
20 | CCCCCCCCCCCCCOC(=O)CCSCCC(C(=O)NCCCN1CCOCC1)C(=O)OCC(CCCCCC)CCCCCCCC (centres unmarked) [VC-LC-0605] | – | – | 52.30% | – | -11.79 mV | 136.3 nm | – | – | 0.24 | – | 5.68
21 | CCCCCCCCC(CCCCCC)COC(=O)CCSCCC(C(=O)NCCCN1CCOCC1)C(=O)OCC(CCCCCC)CCCCCCCC (centres unmarked) [VC-LC-0606] | – | – | 51.46% | – | -9.73 mV | 168.0 nm | – | – | 0.18 | – | 5.64
22 | CCCCCCCCC(CCCCCC)COC(=O)C(CCSCCC(=O)OCCCCCCCC(C)C)C(=O)NCCCN1CCOCC1 (centres unmarked) [VC-LC-0607] | – | – | 49.38% | – | -11.81 mV | 148.0 nm | – | – | 0.17 | – | 5.89
23 | CCCCCCCCC(CCCCCC)COC(=O)C(CCSCCC(=O)OCC(CC)CCCC)C(=O)NCCCN1CCOCC1 (centres unmarked) [VC-LC-0608] | – | – | 50.40% | – | -11.14 mV | 179.2 nm | – | – | 0.20 | – | 5.88
24 | CCCCCCCCCCCCCCOC(=O)CCSCCC(C(=O)NCCCN1CCOCC1)C(=O)OCC(CCCCCC)CCCCCCCC (centres unmarked) [VC-LC-0610] | – | – | 55.68% | – | -21.04 mV | 168.1 nm | – | – | 0.13 | – | 5.93
